# What was measured:
# N-Cadherin mRNA = assay: qPCR after YTZ3-15 delivery of siTwist in SUM 1315: N-Cadherin; format: cell-based, human; details: delivered via YTZ3-15; after seven days
# Experimental: (§1) Cell Culture, Transfection, and Stable Cell Line Production. SUM 1315 breast cancer cells were obtained from ATCC (Manassas, VA). Cells were maintained at 37° C., 5% CO2, and 90% humidity in a tissue culture incubator. Media for SUM 1315 cells consisted of a 50-50 mixture of DMEM and F12 media, supplemented with 5 μg/ml insulin, 10 ng/ml EGF, 5% fetal bovine serum, and 1% penicillin/streptomycin. Cells were passaged using 0.25% trypsin (Genesee Scientific, San Diego, CA) every 2-3 days as they reached confluency. […]
# (§2) Quantitative PCR. […] RNA quantity and quality was measured and analyzed (with 260/280 nm and 260/230 nm spectra measurements) using a NanoDrop ND-1000 (Thermo Fisher Scientific, Waltham, MA). […] Quantitative RT-PCR was performed in quadruplicate using Maxima SYBR Green Master Mix (Thermo Fisher Scientific, Waltham, MA) in 25 μl reactions. […] Data were analyzed using Bio-Rad iQ5 software using the 2^−ΔΔ^Ct method and normalized to Actin. […]
# TWIST [1] = assay: TWIST knockdown after YTZ3-15 delivery of siRNA in ovarian cancer cell lines; format: cell-based
# Experimental: PAMAM dendrimer design and delivery. The polyamidoamine (PAMAM) dendrimer used in this study is the […] third generation dendrimer, illustrated in FIG. 16A and previously described. To complex the dendrimer with siRNA, YTZ3-15 at 240 μM was mixed with […] in OptiMEM Low Serum Medium (Thermo Fisher). Upon complexing with siRNA, dendrimers form micelle structures with siRNA at the surface and the hydrophobic tails sequestered in the core (FIG. 16B). 14.6 μl YTZ3-15 and 10 μl siRNA were used per well of a 6-well plate. Final concentrations of YTZ3-15 and siRNA once added to cells were 1.75 μM and 50 nm, respectively. Where indicated, 3.5 μM YTZ3-15 and 100 nm siRNA were used for Ovcar8.
# (§3) Western Blotting. Following siRNA treatment, cells were pelleted and lysed in RIPA buffer. Protein concentration was determined by BCA assay (Thermo Fisher). Following SDS-PAGE, protein was transferred to Amersham PVDF membrane (Genesee Scientific) using a BioRad Trans-Blot SD semi-dry transfer unit. Blots were then blocked in milk for one hour at room temperature or overnight at 4° C. Incubation with primary antibody took place for one hour at room temperature or overnight at 4° C. Antibodies were diluted in 5% milk, with 0.1-0.2% Tween-20. Antibodies used were TWIST 2c1a (Santa Cruz Biotechnology, Dallas, TX) at 1:250-1:500 dilution, β-Actin, A1978 (Sigma Aldrich, St. Louis, MO) at 1:2500-1:5000 dilution; and Horseradish Peroxidase (HRP) conjugated anti-mouse secondary antibodies. For film-based westerns, Blue Devil film (Genesee Scientific) and ECL Plus chemiluminescent substrate (Thermo Fisher) were used to detect protein. For digital westerns, the Syngene Pxi4 digital blot imager and Michigan Diagnostics FemtoGlow chemilumescent substrate were used.
# TWIST [2] = assay: TWIST knockdown after Lipofectamine 2000 transfection in A2780R (western blot); format: cell-based; details: over three days post transfection
# Experimental: Cell Culture. A2780R and all derivatives of Ovcar8 were grown in RPMI 1640 (Genesee Scientific, San Diego, CA) in a tissue culture incubator at 37° C., 5% CO2, and 90% humidity. Growth medium was supplemented with 10% fetal bovine serum and 1% penicillin/streptomycin. Cells were passaged every 2-4 days using 0.25% trypsin (Genesee Scientific). Where indicated, cells were transfected with Lipofectamine 2000 (Thermo Fisher, Waltham, MA) according to the manufacturer's instructions. A2780R cells are a cisplatin resistant derivative of A2780.
# as §3, with “For film-based westerns, Blue Devil film (Genesee Scientific) and ECL Plus chemiluminescent substrate (Thermo Fisher) were used to detect protein. For digital westerns, the Syngene Pxi4 digital blot imager and Michigan Diagnostics FemtoGlow chemilumescent substrate were used.” left out
# TWIST1 = TWIST1 knockdown after Lipofectamine 2000 transfection in SUM 1315; format: cell-based, human
# Experimental: as §1, §2
# Western Blot. […] Cells were pelleted, lysed in RIPA buffer, and protein concentration was determined using the BCA Assay (Thermo Fisher Scientific, Waltham, MA). […]
substance,measurement,setting,value
"si419: anti-TWIST siRNA; passenger 5′-GGACAAGCUGAGCAAGAUU-3′ (SEQ ID No: 1), guide 5′-AAUCUUGCUCAGCUUGUCCUU-3′ (SEQ ID No: 2) (listed as RNA, chemistry not fully specified)",N-Cadherin mRNA decrease,N-Cadherin mRNA,approximately 90%
same,TWIST knockdown,TWIST [1]; A2780R,successfully knocked down TWIST
same,TWIST knockdown,"TWIST [1]; Ovcar8, double the usual dose (100 nM siRNA)",minimal
same,TWIST expression,TWIST [2],completely inhibit TWIST expression
same,TWIST1 knockdown (protein and mRNA),TWIST1,knockdown of TWIST1

# — US11926826B2, “Twist signaling inhibitor compositions and methods of using the same” (City of Hope, priority 2016, dated 2024)
